Laboratory results as given in US6737383B1, “Herbicidal oxadiazolidines” (priority 1999, dated 2004).

Legend:
wild oat = assay: Test B pre/postemergence wild oat; format: in vivo, Avena fatua
Summary of the method: (§1)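 Test chemicals in a non-phytotoxic solvent mixture with surfactant were sprayed preemergence onto planted seeds and postemergence onto plants 2 to 18 cm tall (1- to 4-leaf stage). After twelve to sixteen days in a greenhouse, injury was visually rated against untreated controls from 0 (no effect) to 10 (complete control).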

cocklebur = assay: Test B pre/postemergence cocklebur; format: in vivo, Xanthium strumarium
Summary of the method: as §1

bedstraw = assay: Test B pre/postemergence bedstraw; format: in vivo, Galium aparine
Summary of the method: as §1

blackgrass = assay: Test B pre/postemergence blackgrass; format: in vivo, Alopecurus myosuroides
Summary of the method: as §1

surinam grass = assay: Test B pre/postemergence surinam grass; format: in vivo, Brachiaria decumbens
Summary of the method: as §1

crabgrass = assay: Test B pre/postemergence crabgrass; format: in vivo, Digitaria sanguinalis
Summary of the method: as §1

rice = assay: Test B flood test rice; format: in vivo, Oryza sativa
Summary of the method: (§2)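 Read-out is a visual response score from 0 (no effect) to 10 (complete control), assigned by comparison with untreated controls. Treatment was applied at the 2-leaf stage, and plants stayed in the greenhouse for twelve to sixteen days before scoring.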

morningglory = assay: Test B pre/postemergence morningglory; format: in vivo, Ipomoea hederacea
Summary of the method: as §1

giant foxtail = assay: Test B pre/postemergence giant foxtail; format: in vivo, Setaria faberii
Summary of the method: as §1

smallflower flatsedge = assay: Test B flood test smallflower flatsedge; format: in vivo, Cyperus difformis
Summary of the method: as §2

wheat = assay: Test B pre/postemergence wheat; format: in vivo, Triticum aestivum
Summary of the method: as §1

bamyardgrass = assay: Test B flood test barnyardgrass; format: in vivo, Echinochloa crus-galli
Summary of the method: as §2

corn = assay: Test B pre/postemergence corn; format: in vivo, Zea mays
Summary of the method: as §1

pigweed = assay: Test B pre/postemergence pigweed; format: in vivo, Amaranthus retroflexus
Summary of the method: as §1

velvetleaf = assay: Test B pre/postemergence velvetleaf; format: in vivo, Abutilon theophrasti
Summary of the method: as §1

soybean = assay: Test B pre/postemergence soybean; format: in vivo, Glycine max
Summary of the method: as §1

[1] = Preemergence, Rate 62 g/ha, scale of 0 to 10 where 0 is no effect and 10 is complete control
[2] = Preemergence, Rate 250 g/ha, scale 0 to 10, 0 is no effect, 10 is complete control
[3] = Preemergence, Rate 500 g/ha, scale 0 to 10 (0 no effect, 10 complete control)
[4] = Rate 125 g/ha, Postemergence, scale 0 to 10
[5] = Preemergence, Rate 125 g/ha, 0 is no effect, 10 is complete control
[6] = Rate 62 g/ha, Postemergence, scale of 0 to 10 where 0 is no effect and 10 is complete control
[7] = Rate 500 g/ha, Postemergence, scale 0 to 10
[8] = Rate 62 g/ha, headed Pre-emergence (flood test species), scale 0 to 10 (0 no effect, 10 complete control)
[9] = Rate 125 g/ha, Pre-emergence, flood test species, scale 0 to 10 where 0 is no effect and 10 is complete control
[10] = Rate 250 g/ha, Pre-emergence, flood-test species, scale 0 to 10, 0 is no effect, 10 is complete control
[11] = Rate 500 g/ha, headed Pre-emergence (flood test species), scale 0 to 10 (0 no effect, 10 complete control)

In the case of Cc1ccccc1-n1c(=O)on(C(=O)N(c2ccc(Cl)cc2Cl)C(C)C)c1=O [Compound 185], the “Wild oats plant response rating” value (wild oat; [1]) is reported as 0, the “Wild oats plant response rating” value (wild oat; [2]) is reported as 0 and the “Wild oats plant response rating” value (wild oat; [3]) is reported as 0. For the same compound, the “Wild oats plant response rating” value (wild oat; [4]) was 0, the “Plant response rating (0 to 10; 0 is no effect, 10 is complete control), Wild oats” value (wild oat; Rate 250 g/ha, Postemergence) was 0 and the “Cocklebur plant response rating (0 to 10 scale)” value (cocklebur; [5]) was 0. The “Cocklebur plant response rating” value (cocklebur; [2]) was 0, the “Cocklebur plant response rating” value (cocklebur; [6]) was 0 and the “Cocklebur plant response rating” value (cocklebur; [4]) was 0. The “Plant response rating (0 to 10; 0 is no effect, 10 is complete control), Cocklebur” value (cocklebur; Rate 250 g/ha, Postemergence) was 0, the “Cocklebur plant response rating” value (cocklebur; [7]) was 2 and the “Bedstraw plant response rating” value (bedstraw; [1]) was 0. The “Bedstraw plant response rating (0 to 10 scale)” value (bedstraw; [5]) was 0, the “Bedstraw plant response rating” value (bedstraw; [2]) was 0 and the “Bedstraw plant response rating” value (bedstraw; [3]) was 0. The “Bedstraw plant response rating” value (bedstraw; [6]) was 0, the “Bedstraw plant response rating” value (bedstraw; [4]) was 0 and the “Plant response rating (0 to 10; 0 is no effect, 10 is complete control), Bedstraw” value (bedstraw; Rate 250 g/ha, Postemergence) was 3. The “Bedstraw plant response rating” value (bedstraw; [7]) was 3, the “Blackgrass plant response rating” value (blackgrass; [1]) was 0 and the “Blackgrass plant response rating (0 to 10 scale)” value (blackgrass; [5]) was 0. For the same compound, the “Blackgrass plant response rating” value (blackgrass; [2]) was 0, the “Blackgrass plant response rating” value (blackgrass; [3]) was 0 and the “Blackgrass plant response rating” value (blackgrass; [6]) was 0. For the same compound, the “Blackgrass plant response rating” value (blackgrass; [4]) was 0, the “Plant response rating (0 to 10; 0 is no effect, 10 is complete control), Blackgrass” value (blackgrass; Rate 250 g/ha, Postemergence) was 0 and the “Blackgrass plant response rating” value (blackgrass; [7]) was 0. The “B. signalgrass plant response rating” value (surinam grass; [1]) was 0, the “B. signalgrass plant response rating (0 to 10 scale)” value (surinam grass; [5]) was 0 and the “B. signalgrass plant response rating” value (surinam grass; [2]) was 0. For the same compound, the “B. signalgrass plant response rating” value (surinam grass; [3]) was 0, the “B. signalgrass plant response rating” value (surinam grass; [6]) was 0 and the “B. signalgrass plant response rating” value (surinam grass; Rate 125 g/ha, Postemergence, scale 0 (no effect) to 10 (complete control)) was 0. For the same compound, the “Plant response rating, B. signalgrass” value (surinam grass; Rate 250 g/ha, Postemergence, scale 0 to 10, 0 is no effect, 10 is complete control) was 0, the “B. signalgrass plant response rating” value (surinam grass; Rate 500 g/ha, Postemergence, scale 0 to 10, 0 no effect, 10 complete control) was 0 and the “Crabgrass plant response rating” value (crabgrass; [1]) was 2. The “Crabgrass plant response rating (0 to 10 scale)” value (crabgrass; [5]) was 6, the “Crabgrass plant response rating” value (crabgrass; [2]) was 7 and the “Crabgrass plant response rating” value (crabgrass; [3]) was 9. For the same compound, the “Crabgrass plant response rating” value (crabgrass; [6]) was 0, the “Crabgrass plant response rating” value (crabgrass; [4]) was 1 and the “Crabgrass plant response rating” value (crabgrass; [7]) was 1. For the same compound, the “Rice plant response rating” value (rice; [8]) was 0, the “Rice plant response rating” value (rice; [9]) was 0 and the “Rice plant response rating” value (rice; [10]) was 0. For the same compound, the “Plant response rating, Rice” value (rice; [11]) was 0, the “Morningglory plant response rating” value (morningglory; [1]) was 0 and the “Morningglory plant response rating (0 to 10 scale)” value (morningglory; [5]) was 0. The “Morningglory plant response rating” value (morningglory; [2]) was 0, the “Morningglory plant response rating” value (morningglory; [3]) was 0 and the “Morningglory plant response rating” value (morningglory; [6]) was 1. For the same compound, the “Morningglory plant response rating” value (morningglory; [4]) was 1, the “Plant response rating (0 to 10; 0 is no effect, 10 is complete control), Morningglory” value (morningglory; Rate 250 g/ha, Postemergence) was 1 and the “Morningglory plant response rating” value (morningglory; [7]) was 2. The “Giant foxtail plant response rating” value (giant foxtail; [1]) was 0, the “Giant foxtail plant response rating (0 to 10 scale)” value (giant foxtail; [5]) was 5 and the “Giant foxtail plant response rating” value (giant foxtail; [2]) was 9. The “Giant foxtail plant response rating” value (giant foxtail; [3]) was 9, the “Giant foxtail plant response rating” value (giant foxtail; [6]) was 0 and the “Giant foxtail plant response rating” value (giant foxtail; [4]) was 0. The “Plant response rating (0 to 10; 0 is no effect, 10 is complete control), Giant foxtail” value (giant foxtail; Rate 250 g/ha, Postemergence) was 0, the “Giant foxtail plant response rating” value (giant foxtail; [7]) was 1 and the “S. Flatsedge plant response rating” value (smallflower flatsedge; [8]) was 0. The “S. Flatsedge plant response rating” value (smallflower flatsedge; [9]) was 0, the “S. Flatsedge plant response rating” value (smallflower flatsedge; [10]) was 0 and the “S. Flatsedge plant response rating” value (smallflower flatsedge; Rate 500 g/ha, Pre-emergence, flood test species, scale 0 to 10 (0 no effect, 10 complete control)) was 0. For the same compound, the “Wheat plant response rating” value (wheat; [1]) was 0, the “Wheat plant response rating” value (wheat; [2]) was 0 and the “Wheat plant response rating” value (wheat; [3]) was 0. For the same compound, the “Wheat plant response rating” value (wheat; [4]) was 0, the “Plant response rating (0 to 10; 0 is no effect, 10 is complete control), Wheat” value (wheat; Rate 250 g/ha, Postemergence) was 0 and the “Barnyardgrass plant response rating” value (bamyardgrass; [8]) was 0. For the same compound, the “Barnyardgrass plant response rating” value (bamyardgrass; [9]) was 0, the “Barnyardgrass plant response rating” value (bamyardgrass; [10]) was 0 and the “Plant response rating, Barnyardgrass” value (bamyardgrass; [11]) was 0. For the same compound, the “Corn plant response rating” value (corn; [1]) was 0, the “Corn plant response rating (0 to 10 scale)” value (corn; [5]) was 0 and the “Corn plant response rating” value (corn; [2]) was 0. For the same compound, the “Corn plant response rating” value (corn; [3]) was 0, the “Corn plant response rating” value (corn; [6]) was 0 and the “Corn plant response rating” value (corn; [4]) was 0. The “Plant response rating (0 to 10; 0 is no effect, 10 is complete control), Corn” value (corn; Rate 250 g/ha, Postemergence) was 0, the “Corn plant response rating” value (corn; [7]) was 0 and the “Redroot pigweed plant response rating” value (pigweed; [1]) was 0. The “Redroot pigweed plant response rating (0 to 10 scale)” value (pigweed; [5]) was 0, the “Redroot pigweed plant response rating” value (pigweed; [2]) was 0 and the “Redroot pigweed plant response rating” value (pigweed; [3]) was 0. The “Redroot pigweed plant response rating” value (pigweed; [6]) was 0, the “Redroot pigweed plant response rating” value (pigweed; [4]) was 1 and the “Plant response rating (0 to 10; 0 is no effect, 10 is complete control), Redroot pigweed” value (pigweed; Rate 250 g/ha, Postemergence) was 3. The “Redroot pigweed plant response rating” value (pigweed; [7]) was 4, the “Velvetleaf plant response rating” value (velvetleaf; [1]) was 0 and the “Velvetleaf plant response rating” value (velvetleaf; [2]) was 0. The “Velvetleaf plant response rating” value (velvetleaf; [3]) was 0, the “Velvetleaf plant response rating” value (velvetleaf; [4]) was 0 and the “Plant response rating (0 to 10; 0 is no effect, 10 is complete control), Velvetleaf” value (velvetleaf; Rate 250 g/ha, Postemergence) was 0. The “Soybean plant response rating” value (soybean; [1]) was 0, the “Soybean plant response rating (0 to 10 scale)” value (soybean; [5]) was 0 and the “Soybean plant response rating” value (soybean; [2]) was 0. The “Soybean plant response rating” value (soybean; [3]) was 0, the “Soybean plant response rating” value (soybean; [6]) was 2 and the “Soybean plant response rating” value (soybean; [4]) was 2. For the same compound, the “Plant response rating (0 to 10; 0 is no effect, 10 is complete control), Soybean” value (soybean; Rate 250 g/ha, Postemergence) was 3 and the “Soybean plant response rating” value (soybean; [7]) was 3.
